{"source": "patent US20040248804A1", "about": "“Nasal administration of the LH-RH analog Leuprolide” (priority 2003, published 2004)", "key": {"[1]": {"details": "human, in vivo", "protocol": "The design of the experiment was a five-way, crossover, randomized, partially double-blind, volunteer trial. Women were given leuprolide 1 mg IV and SQ, and IN as novel formulation at 1 mg (one spray), 2 mg (one spray) and 6 mg (three sprays), in random order. There was one dosing regimen on each of five separate days, with each day separated by at least two washout days. Blood for leuprolide measurement was collected via indwelling catheter at baseline and on eighteen occasions, up to twenty four hours after dosing. Plasma was separated and the leuprolide concentrations determined by enzyme linked immunosorbant assays (ELISA). Throughout the study subjects were monitored for adverse events and given nasal examinations."}, "[2]": {"test": "Plasma leuprolide pharmacokinetics after IV, SQ and intranasal (IN) administration, five-way crossover volunteer trial, ELISA", "set-up": "Absolute bioavailability, % of IV: dose or concentration left out as unconfirmed", "details": "human, in vivo; for bioavailability / AUC / Cmax: female", "text": "In the following example, the inventors sought to compare the intranasal (“IN”) administration of leuprolide using the methods and compositions of the invention with prior art methods of administration (subcutaneous (“SQ”) and intravenous (“IV”))."}}, "data": [{"smiles": "CC(=O)O.CCNC(=O)[C@@H]1CCCN1C(=O)[C@H](CCCNC(=N)N)NC(=O)[C@H](CC(C)C)NC(=O)[C@@H](CC(C)C)NC(=O)[C@H](Cc1ccc(O)cc1)NC(=O)[C@H](CO)NC(=O)[C@H](Cc1c[nH]c2ccccc12)NC(=O)[C@H](Cc1c[nH]cn1)NC(=O)[C@@H]1CCC(=O)N1", "note": "[leuprolide, 5-oxo-L-prolyl-L-histidyl-L-tryptophyl-L-seryl-L-tyrosyl-D-leucyl-L-leucyl-L-arginyl-N-ethyl-L-prolinamide acetate salt]", "values": [{"measurement": "Adverse events noted", "setting": "[1]", "value": "rhinorrhea and altered taste sensation"}, {"measurement": "Serious adverse events", "setting": "[1]", "value": "No serious adverse events were reported"}, {"measurement": "bioavailability", "setting": "[2]", "value": "95 ± 17", "unit": "%"}, {"measurement": "AUC", "setting": "[2]; inhaled or intranasal, 1 mg", "value": "15 ± 8", "unit": "ng·h/mL"}, {"measurement": "Cmax", "setting": "[2]; inhaled or intranasal, 1 mg", "value": "5 ± 3", "unit": "ng/mL"}, {"measurement": "bioavailability", "setting": "[2]; inhaled or intranasal, 1 mg", "value": "13 ± 7", "unit": "%"}, {"measurement": "AUC", "setting": "[2]; inhaled or intranasal, 2 mg", "value": "31 ± 16", "unit": "ng·h/mL"}, {"measurement": "Cmax", "setting": "[2]; inhaled or intranasal, 2 mg", "value": "11 ± 6", "unit": "ng/mL"}, {"measurement": "bioavailability", "setting": "[2]; inhaled or intranasal, 2 mg", "value": "14 ± 7", "unit": "%"}, {"measurement": "AUC", "setting": "[2]; inhaled or intranasal, 6 mg", "value": "56 ± 28", "unit": "ng·h/mL"}, {"measurement": "Cmax", "setting": "[2]; inhaled or intranasal, 6 mg", "value": "22 ± 11", "unit": "ng/mL"}, {"measurement": "AUC", "setting": "[2]; iv, 1 mg", "value": "120 ± 25", "unit": "ng·h/mL"}, {"measurement": "Cmax", "setting": "[2]; iv, 1 mg", "value": "85 ± 33", "unit": "ng/mL"}, {"measurement": "AUC", "setting": "[2]; sc, 1 mg", "value": "111 ± 21", "unit": "ng·h/mL"}, {"measurement": "Cmax", "setting": "[2]; sc, 1 mg", "value": "35 ± 8", "unit": "ng/mL"}, {"measurement": "Absolute bioavailability, % of IV", "setting": "[2]", "value": "8 ± 3 % of IV"}, {"measurement": "Absolute bioavailability, % of IV", "setting": "[2]; iv", "value": "100 % of IV"}]}]}
